The subject of one test is 6-OHDA-lesioned mice. The test is described as follows: Motor activity study in 6-OHDA-lesioned mice. In kind it is in vivo. The conditions noted are these: 5 mg/kg i.p.
Test [1] addresses T1, D1 (Homo sapiens, UniProt P21728). Kind of test: D1R GS-mediated cAMP accumulation GloSensor assay. In kind it is cell-based. The conditions noted are these: for Emax: read-out: GS-cAMP EMAX; for activity in GS-cAMP accumulation (in words): GloSensor. A general note: cAMP levels reflect the balance of adenylyl cyclase and phosphodiesterase activity.
The target of test [2] is T1, D1. The test is described as follows: BRET β-arrestin2 recruitment assay. Type of test: cell-based. The conditions noted are these: for Emax: read-out: β-arrestin2 EMAX; for activity in β-arrestin2 recruitment (in words): BRET. (In general: Bioluminescence resonance energy transfer reports proximity on the nanometre scale.)

pEC50: −log10 of the molar value. Some results are limits rather than exact numbers.

T1 sequence (P21728 whole entry): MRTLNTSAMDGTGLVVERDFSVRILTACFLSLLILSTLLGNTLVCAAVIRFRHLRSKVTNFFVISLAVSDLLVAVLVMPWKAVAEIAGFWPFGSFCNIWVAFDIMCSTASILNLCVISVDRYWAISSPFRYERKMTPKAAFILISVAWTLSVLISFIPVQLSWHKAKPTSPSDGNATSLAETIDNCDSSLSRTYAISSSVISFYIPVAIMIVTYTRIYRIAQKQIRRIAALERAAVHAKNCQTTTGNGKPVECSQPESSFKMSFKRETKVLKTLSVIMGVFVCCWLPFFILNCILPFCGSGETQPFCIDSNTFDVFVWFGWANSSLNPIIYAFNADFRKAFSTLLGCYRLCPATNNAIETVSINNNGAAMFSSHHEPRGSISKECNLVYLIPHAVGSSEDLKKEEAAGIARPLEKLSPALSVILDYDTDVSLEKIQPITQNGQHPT

For the compound `Oc1cc2c(c(Cl)c1O)CCNCC2c1ccccc1` (stereo not drawn) [SKF81297, reference compound], the “forward locomotion compared to vehicle after 1 h” value with 6-OHDA-lesioned mice (61–90 min interval) was “no longer displayed significantly increased forward locomotion”. In addition, in the test on 6-OHDA-lesioned mice (90 min), the “number of contralateral rotations vs vehicle” value is recorded as “significant increases”.

With `Cc1cc(Oc2nccc3occc23)ccc1-c1cc(=O)[nH]cn1` [Compound 5, 6-(4-(Furo[3,2-c]pyridin-4-yloxy)-2-methylphenyl)pyrimidin-4(3H)-one], the pEC50 on D1 [1] was 6.88; on D1 [2] it was < 5.00. In addition, the Emax on D1 [1] was found to be 96%.

Take `Cc1cc(Oc2nccc3ccccc23)ccc1-c1c(C)c(=O)[nH]c(=O)n1C` [Compound 38, 6-(4-(Isoquinolin-1-yloxy)-2-methylphenyl)-1,5-dimethylpyrimidine-2,4(1H,3H)-dione]: on D1 [1], the pEC50 is 9.40 and the Emax came out at 115%. In addition, the negative-log EC50 (pEC50) at D1 [2] was < 5.00.

Regarding `Cc1cc(Oc2nccc3occc23)ccc1-c1cn[nH]c(=O)c1C` [Compound 12, 5-(4-(Furo[3,2-c]pyridin-4-yloxy)-2-methylphenyl)-4-methylpyridazin-3(2H)-one], at D1 [1], the pEC50 is 8.96 and the Emax came out at 92%. Further, on D1 [2], the pEC50 is 6.71 and the Emax was found to be 63%.

Regarding `COc1ccnc(Oc2ccc(-c3c(C)c(=O)[nH]c(=O)n3C)c(C)c2)c1C#N` [Compound 33, 2-(4-(3,5-Dimethyl-2,6-dioxo-1,2,3,6-tetrahydropyrimidin-4-yl)-3-methylphenoxy)-4-methoxynicotinonitrile], on D1 [1], the negative logarithm of the EC50 (pEC50) was 7.64 and the Emax was determined as 59%. Moreover, the “activity in β-arrestin2 recruitment (in words)” value on D1 [2] was “no activity”.

In the case of `Cc1cc(Oc2nccc3sccc23)ccc1-c1c(C)c(=O)[nH]c(=O)n1C` [Compound 39, 1,5-Dimethyl-6-(2-methyl-4-(thieno[3,2-c]pyridin-4-yloxy)-phenyl)pyrimidine-2,4(1H,3H)-dione], on D1 [1], the pEC50 is 8.15 and the maximum response (Emax) was found to be 104%. In addition, at D1 [2], the pEC50 is 7.89 and the Emax turned out to be 30%.

As for `CCn1c(-c2ccc(Oc3nccc4occc34)cc2C)c(C)c(=O)[nH]c1=O` [Compound 17, 1-Ethyl-6-(4-(furo[3,2-c]pyridin-4-yloxy)-2-methylphenyl)-5-methylpyrimidine-2,4(1H,3H)-dione], on D1 [1], the pEC50 was 10.10 and the Emax is 95%. In addition, at D1 [2], the pEC50 was 7.89 and the Emax was 65%.

As to `Cc1cc(Oc2nccc3occc23)ccc1-c1c(C)c(=O)[nH]c(=O)n1CC1CC1` [Compound 19, 1-(Cyclopropylmethyl)-6-(4-(furo[3,2-c]pyridin-4-yloxy)-2-methylphenyl)-5-methylpyrimidine-2,4(1H,3H)-dione], on D1 [1], the pEC50 is 9.30 and the Emax is 84%. Also, the “activity in β-arrestin2 recruitment (in words)” value on D1 [2] is reported as “no activity”.

`Cc1cc(Oc2ccccn2)ccc1-c1c(C)c(=O)[nH]c(=O)n1C` [Compound 30, 1,5-Dimethyl-6-(2-methyl-4-(pyridin-2-yloxy)phenyl)pyrimidine-2,4(1H,3H)-dione]: the Emax is 107% at D1 [1] and 40% at D1 [2].

With `Cc1cc(-c2c(C)c(=O)[nH]c(=O)n2C)ccc1Oc1nccc2occc12` [Compound 26, 6-(4-(Furo[3,2-c]pyridin-4-yloxy)-3-methylphenyl)-1,5-dimethylpyrimidine-2,4(1H,3H)-dione], on D1 [1], the pEC50 was 7.48 and the Emax turned out to be 100%. Further, the “activity in β-arrestin2 recruitment (in words)” value at D1 [2] is on record as “no activity”.

Regarding `Cc1cc(Oc2nccc3occc23)ccc1-c1c(C)cn[nH]c1=O` [Compound 13, 4-(4-(Furo[3,2-c]pyridin-4-yloxy)-2-methylphenyl)-5-methylpyridazin-3(2H)-one], at D1 [1], the pEC50 is 6.69 and the maximum response (Emax) is 82%. Besides, the “activity in β-arrestin2 recruitment (in words)” value on D1 [2] is reported as “no activity”.

Consider `COc1ccnc(Oc2ccc(-c3c(C)c(=O)[nH]c(=O)n3C)c(C)c2)c1` [Compound 31, 6-(4-((4-Methoxypyridin-2-yl)oxy)-2-methylphenyl)-1,5-dimethylpyrimidine-2,4(1H,3H)-dione], for which, at D1 [1], the pEC50 is 8.70 and the Emax stood at 108%. In addition, on D1 [2], the negative-log EC50 (pEC50) is 7.28 and the Emax came out at 27%.

On to `Cc1cc(Oc2ncccc2C(F)(F)F)ccc1-c1c(C)c(=O)[nH]c(=O)n1C` [Compound 32, 1,5-Dimethyl-6-(2-methyl-4-((3-(trifluoromethyl)pyridin-2-yl)-oxy)phenyl)pyrimidine-2,4(1H,3H)-dione], for which the maximal effect (Emax) came to 118% on D1 [1] and 30% at D1 [2].

For the compound `COc1ccc(-c2c(C)c(=O)[nH]c(=O)n2C)c(C)c1` [Compound 29, 6-(4-Methoxy-2-methylphenyl)-1,5-dimethylpyrimidine-2,4-(1H,3H)-dione], the “activity in GS-cAMP accumulation (in words)” value on D1 [1] was “inactive”. On D1 [2], the “activity in β-arrestin2 recruitment (in words)” value is “inactive”.

Regarding `Cc1cc(O)ccc1-c1c(C)c(=O)[nH]c(=O)n1C` [Compound 28, 6-(4-Hydroxy-2-methylphenyl)-1,5-dimethylpyrimidine-2,4-(1H,3H)-dione], at D1 [1], the “activity in GS-cAMP accumulation (in words)” value was “inactive”. Moreover, at D1 [2], the “activity in β-arrestin2 recruitment (in words)” value was “inactive”.

For `Cc1cc(Oc2nccc3occc23)ccc1-c1cc(N)nc(N)n1` [Compound 8, 6-(4-(Furo[3,2-c]pyridin-4-yloxy)-2-methylphenyl)pyrimidine-2,4-diamine], the pEC50 at D1 [1] is < 5.00. On D1 [2], the “activity in β-arrestin2 recruitment (in words)” value is on record as “no activity”.

On to `Cc1c(-c2ccc(Oc3nccc4occc34)cc2)n(C)c(=O)[nH]c1=O` [Compound 27, 6-(4-(Furo[3,2-c]pyridin-4-yloxy)phenyl)-1,5-dimethylpyrimidine-2,4(1H,3H)-dione], for which, at D1 [1], the pEC50 was 10.10 and the Emax was found to be 96%. On D1 [2], the pEC50 was 7.40 and the Emax came to 75%.

Consider `Cc1cc(Oc2nccc3occc23)ccc1C1=CCN(C)CC1` [Compound 1, 4-(3-Methyl-4-(1-methyl-1,2,3,6-tetrahydropyridin-4-yl)-phenoxy)furo[3,2-c]pyridine], for which the “activity in GS-cAMP accumulation (in words)” value on D1 [1] is “largely inactive”. Further, the “activity in β-arrestin2 recruitment (in words)” value at D1 [2] was “largely inactive”.

Take `Cc1cc(Oc2nccc(Cl)c2C(F)(F)F)ccc1-c1c(C)c(=O)[nH]c(=O)n1C` [Compound 34, 6-(4-((4-Chloro-3-(trifluoromethyl)pyridin-2-yl)oxy)-2-methyl-phenyl)-1,5-dimethylpyrimidine-2,4(1H,3H)-dione]: on D1 [1], the negative logarithm of the EC50 (pEC50) was 6.98 and the Emax was 82%. For the same compound, at D1 [2], the “activity in β-arrestin2 recruitment (in words)” value is “no activity”.

In the case of `Cc1cc(Oc2nccc3occc23)ccc1-c1cc[nH]c(=O)c1` [Compound 3, 4-(4-(Furo[3,2-c]pyridin-4-yloxy)-2-methylphenyl)pyridin-2(1H)-one], at D1 [1], the pEC50 is 6.75 and the Emax is 81%. Moreover, the “activity in β-arrestin2 recruitment (in words)” value at D1 [2] is on record as “no activity”.

On to `Cc1cc(Oc2nccc3occc23)ccc1-c1cc(=O)[nH]c(=O)[nH]1` [Compound 9, 6-(4-(Furo[3,2-c]pyridin-4-yloxy)-2-methylphenyl)pyrimidine-2,4(1H,3H)-dione], for which the pEC50 at D1 [1] was 8.05; on D1 [2], 5.68. Further, the Emax on D1 [1] worked out at 78%; at D1 [2] it was 37%.

Turning to `Cc1cc(Oc2nccc3occc23)ccc1-c1c(C)cnc(=O)n1C` [Compound 11, 6-(4-(Furo[3,2-c]pyridin-4-yloxy)-2-methylphenyl)-1,5-dimethylpyrimidin-2(1H)-one], on D1 [1], the pEC50 was 8.74 and the Emax came to 88%. Moreover, at D1 [2], the pEC50 is 6.82 and the Emax came out at 19%.

Regarding `Cc1cc(Oc2nccc3occc23)ccc1-c1c(C)c(=O)[nH]c(=O)n1C1CCC1` [Compound 20, 1-Cyclobutyl-6-(4-(furo[3,2-c]pyridin-4-yloxy)-2-methylphenyl)-5-methylpyrimidine-2,4(1H,3H)-dione], on D1 [1], the pEC50 is 9.10 and the Emax worked out at 82%. Moreover, the “activity in β-arrestin2 recruitment (in words)” value at D1 [2] is given as “no activity”.

Broadly, the pEC50 is the EC50 on a negative log10 scale, so that one unit is a factor of ten. A higher pEC50 goes with a small EC50. Usually Emax stands for the size of the effect at its maximum, as opposed to the concentration needed.

Source of the values: article PMC6785188 (ACS chemical neuroscience, 2019).
